{"source": "paper PMC10839085", "about": "“Screening and evaluation of metabolites binding PRAS40 from Erxian decoction used to treat spinal cord injury” (Frontiers in Pharmacology, 2024)", "key": {"PRAS40 [1]": {"biological_target": "T1, PRAS40 (Homo sapiens, UniProt Q96B36)", "T1 construct": "gene AKT1S1; His-tagged, purchased from Genscript (Nanjing); UniProt Q96B36 (human) given only for the docking receptor", "experiment": "ligand fishing from Erxian decoction with immobilized PRAS40, LC-MS identification", "format": "binding", "conditions": "PBS-Tween, pH 7.4, eluted from Ni-NTA beads, identified from extract by MS only"}, "PRAS40 [2]": {"biological_target": "T1, PRAS40", "experiment": "isothermal titration calorimetry", "format": "binding", "description": "isothermal titration calorimetry on PRAS40"}, "[3]": {"conditions": "read-out: Ka (M^-1) (converted)"}}, "note": "Like-named read-outs stand apart in the source and are kept apart here."}
{"smiles": "O=[N+]([O-])c1ccc(O)cc1", "note": "[4-nitrophenol]", "values": [{"measurement": "ligand fishing from Erxian decoction with immobilized PRAS40, LC-MS identificati", "setting": "PRAS40 [1]", "result": "The immobilized PRAS40 isolated indole, 4-nitrophenol, terephthalic acid"}]}
{"smiles": "O=C(O)c1ccc(C(=O)O)cc1", "note": "[terephthalic acid]", "values": [{"measurement": "ligand fishing from Erxian decoction with immobilized PRAS40, LC-MS identificati", "setting": "PRAS40 [1]", "result": "The immobilized PRAS40 isolated indole, 4-nitrophenol, terephthalic acid"}]}
{"smiles": "COc1cc2c(cc1OC)-c1cc3ccc(OC)c(OC)c3c[n+]1CC2", "note": "[palmatine]", "values": [{"measurement": "Kd", "setting": "PRAS40 [2]; [3]", "result": 352, "unit": "nM"}, {"measurement": "Kd", "setting": "PRAS40 [2]; read-out: Kd", "result": 353, "unit": "nM"}]}
{"smiles": "COc1cc(/C=C/C=O)cc(OC)c1O", "note": "[sinapinaldehyde]", "values": [{"measurement": "ligand fishing from Erxian decoction with immobilized PRAS40, LC-MS identificati", "setting": "PRAS40 [1]; named as PAINS by the paper", "result": "palmatine, sinapinaldehyde, and 3-chloroaniline as the potential ligands binding to PRAS40"}]}
{"smiles": "c1ccc2[nH]ccc2c1", "note": "[indole]", "values": [{"measurement": "Kd", "setting": "PRAS40 [2]; [3]", "result": 2620, "unit": "nM"}, {"measurement": "Kd", "setting": "PRAS40 [2]; read-out: Kd", "result": 2620, "unit": "nM"}]}
